According to US10385024B2, “Compounds and methods for inhibiting NHE-mediated antiport in the treatment of disorders associated with fluid retention or salt overload and gastrointestinal tract disorders” (Ardelyx, Inc., priority 2012, dated 2019):

Columns and labels:
Rat NHE-3 [1] = biological target: T1, Rat NHE-3 (Rattus norvegicus, UniProt P26433); experiment: Cell-based assay of NHE-3 activity (rat NHE-3 prompt inhibition); conditions: OK cells with rat NHE-3 gene, compound present during pH recovery; for IC50: read-out: Rat NHE3 pIC50 (prompt) (converted)
T1 construct: expressed in transfected cells; host or cells: Opossum kidney (OK) cells (ATCC), transfected by electroporation
Outline: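 Opossum kidney cells electroporated with rat or human NHE-3, loaded with 5 μM BCECF-AM in NH4Cl-HEPES pH 7.4 for 30 min at RT, then acidified 10 min in Na+-free choline HEPES. Na+-dependent pH recovery rates from BCECF fluorescence, averaged over ≥2 replicates, gave pIC50.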

Rat NHE-3 [2] = biological target: T1, Rat NHE-3; experiment: Cell-based assay of NHE-3 activity (persistent inhibition, after washout); conditions: OK cells with rat NHE-3 gene, 60 min incubation, recovery initiated 40 min after compound washout; for IC50: read-out: Rat NHE3 pIC50 (persistent) (converted)
Outline: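 OK cells transiently expressing rat NHE-3 were exposed to 0-30 μM compound in NaCl-HEPES pH 7.4 for 60 min, then washed free of drug before NH4Cl/BCECF-AM loading and acid-loading in Na+-free choline buffer. Na+-dependent pH recovery rates (mean of ≥2 replicates) gave pIC50.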

[3] = tested on: absorption of sodium from the intestinal lumen; experiment: Inhibition of intestinal sodium absorption (urinary sodium and fecal form); format: in vivo, Sprague-Dawley rats; conditions: rat; for response vs control in vivo at 3 mg/kg: 3 mg/kg oral gavage, urine 16 h post-dose, asterisks = significance vs vehicle (*P<0.05, **P<0.01, ***P<0.001), read-out: uNa (% of vehicle)
Outline: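 Sprague-Dawley rats (8 weeks, n=6) dosed by oral gavage with compound or water vehicle (10 mL/kg) in late afternoon, then housed in metabolic cages. Over 16 h, urinary sodium measured by ion chromatography and expressed as % of vehicle mean; fecal form scored 1–5, averaged from two observations.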

Fecal recovery = format: in vivo, Sprague Dawley rats; conditions: rat, 1 mg/kg oral gavage; for dose excreted: male, Sprague-Dawley, faeces
Procedure: Three male Sprague Dawley rats were administered 1 mg/kg test compound by oral gavage. Feces were collected from study animals from 0-48 or 0-72 hours after dosing, dried by lyophilization, and homogenized. Replicate aliquots of 40-60 mg each were subjected to extraction/protein precipitation with 7:1 acetonitrile:water and centrifuged. Supernatants were diluted 1:10 in 50:50 acetonitrile:water prior to analysis by LC-MS/MS. Compound concentrations, determined by interpolation from a standard calibration curve prepared in blank feces matrix, were converted to the percentage of dosed material recovered by taking into account the total collected fecal matter. The percent recovery for each rat was reported as the mean of the calculations from replicate samples. The overall percent recovery (Fecal Recovery [%]) was reported as the mean percent recovery from three rats. Accurate quality control sample recoveries were confirmed in each run, and extraction efficiency was periodically verified.

T1 sequence (P26433 29-831): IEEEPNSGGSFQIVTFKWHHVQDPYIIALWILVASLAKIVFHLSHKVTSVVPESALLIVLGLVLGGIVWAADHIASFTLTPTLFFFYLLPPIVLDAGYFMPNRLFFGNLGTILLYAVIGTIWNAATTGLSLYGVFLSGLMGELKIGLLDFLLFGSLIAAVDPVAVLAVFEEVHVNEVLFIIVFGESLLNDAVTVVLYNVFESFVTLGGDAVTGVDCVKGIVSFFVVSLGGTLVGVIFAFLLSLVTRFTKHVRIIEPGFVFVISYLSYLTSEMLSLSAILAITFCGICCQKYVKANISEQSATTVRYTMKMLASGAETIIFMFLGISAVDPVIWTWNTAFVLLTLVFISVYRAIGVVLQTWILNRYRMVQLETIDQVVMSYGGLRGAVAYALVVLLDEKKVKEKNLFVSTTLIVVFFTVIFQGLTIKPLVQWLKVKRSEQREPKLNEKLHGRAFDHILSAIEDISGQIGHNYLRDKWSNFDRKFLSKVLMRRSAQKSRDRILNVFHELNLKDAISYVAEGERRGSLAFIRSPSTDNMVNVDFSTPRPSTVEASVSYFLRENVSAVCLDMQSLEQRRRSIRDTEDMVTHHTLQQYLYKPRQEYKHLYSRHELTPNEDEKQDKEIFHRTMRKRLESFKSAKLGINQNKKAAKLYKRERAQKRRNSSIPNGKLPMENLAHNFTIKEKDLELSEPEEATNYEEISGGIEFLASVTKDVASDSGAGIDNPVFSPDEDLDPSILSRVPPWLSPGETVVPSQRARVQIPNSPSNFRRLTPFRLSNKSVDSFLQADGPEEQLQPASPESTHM

Row | SMILES | IC50 (Rat NHE-3 [1]) | IC50 (Rat NHE-3 [2]) | response vs control in vivo at 3 mg/kg [3] | dose excreted (Fecal recovery; collection time 48 h) | dose excreted (Fecal recovery; collection time 72 h) | FFS ([3]; fecal form score, scale 1 (normal pellet) to 5 (liquid fecal streams), group average, 3 mg/kg oral, 16 h post-dose, vehicle = 1) | Rat NHE3 pIC50 (prompt) (Rat NHE-3 [1]) | Rat NHE3 pIC50 (persistent) (Rat NHE-3 [2]) | Fecal Recovery (Fecal recovery; collection time 48 h)
1 | CN1Cc2c(Cl)cc(Cl)cc2[C@H](c2cccc(S(=O)(=O)NCCOCCOCCNC(=O)CCC(N)(CCC(=O)NCCOCCOCCNS(=O)(=O)c3cccc([C@@H]4CN(C)Cc5c(Cl)cc(Cl)cc54)c3)CCC(=O)NCCOCCOCCNS(=O)(=O)c3cccc([C@@H]4CN(C)Cc5c(Cl)cc(Cl)cc54)c3)c2)C1 [Example 2, 4-amino-N^1,N^7-bis(2-(2-(2-(3-((S)-6,8-dichloro-2-methyl-1,2,3,4-tetrahydroisoquinolin-4-yl)phenylsulfonamido)ethoxy)ethoxy)ethyl)-4-(3-(2-(2-(2-(3-((S)-6,8-dichloro-2-methyl-1,2,3,4-tetrahydroisoquinolin-4-yl)phenylsulfonamido)ethoxy)ethoxy)ethylamino)-3-oxopropyl)heptanediamide] | < 100 nM | < 100 nM | < 35% | 87% |  |  |  |  | 
2 | CN1Cc2c(Cl)cc(Cl)cc2[C@H](c2cccc(S(=O)(=O)NCCOCCOCCNC(=O)CCC(CCC(=O)NCCOCCOCCNS(=O)(=O)c3cccc([C@@H]4CN(C)Cc5c(Cl)cc(Cl)cc54)c3)(CCC(=O)NCCOCCOCCNS(=O)(=O)c3cccc([C@@H]4CN(C)Cc5c(Cl)cc(Cl)cc54)c3)NC(=O)NCCS(=O)(=O)O)c2)C1 [Example 3] | < 100 nM | < 100 nM | < 35% |  | 110% |  |  |  | 
3 | CN1Cc2c(Cl)cc(Cl)cc2[C@H](c2cccc(S(=O)(=O)NCCOCCOCCNC(=O)CCC(CCC(=O)NCCOCCOCCNS(=O)(=O)c3cccc([C@@H]4CN(C)Cc5c(Cl)cc(Cl)cc54)c3)(CCC(=O)NCCOCCOCCNS(=O)(=O)c3cccc([C@@H]4CN(C)Cc5c(Cl)cc(Cl)cc54)c3)N(C)C)c2)C1 [Example 4, N^1,N^7-bis(2-(2-(2-(3-((S)-6,8-dichloro-2-methyl-1,2,3,4-tetrahydroisoquinolin-4-yl)phenylsulfonamido)ethoxy)ethoxy)ethyl)-4-(3-(2-(2-(2-(3-((S)-6,8-dichloro-2-methyl-1,2,3,4-tetrahydroisoquinolin-4-yl)phenylsulfonamido)ethoxy)ethoxy)ethylamino)-3-oxopropyl)-4-(dimethylamino)heptanediamide] | < 100 nM | < 100 nM | < 35% |  |  | 2 |  |  | 
4 | CN1Cc2c(Cl)cc(Cl)cc2[C@H](c2cccc(S(=O)(=O)NCCOCCOCCNC(=O)CCC(CCC(=O)NCCOCCOCCNS(=O)(=O)c3cccc([C@@H]4CN(C)Cc5c(Cl)cc(Cl)cc54)c3)(CCC(=O)NCCOCCOCCNS(=O)(=O)c3cccc([C@@H]4CN(C)Cc5c(Cl)cc(Cl)cc54)c3)NC(=O)COCC(=O)O)c2)C1 [Example 6, 1-(3-((S)-6,8-dichloro-2-methyl-1,2,3,4-tetrahydroisoquinolin-4-yl)phenylsulfonamido)-13,13-bis(3-(2-(2-(2-(3-((S)-6,8-dichloro-2-methyl-1,2,3,4-tetrahydroisoquinolin-4-yl)phenylsulfonamido)ethoxy)ethoxy)ethylamino)-3-oxopropyl)-10,15-dioxo-3,6,17-trioxa-9,14-diazanonadecan-19-oic Acid] | < 100 nM | < 100 nM | < 35% | 51.5% |  |  |  |  | 
5 | CN1Cc2c(Cl)cc(Cl)cc2[C@H](c2cccc(S(=O)(=O)NCCOCCOCCNC(=O)CCC(CCC(=O)NCCOCCOCCNS(=O)(=O)c3cccc([C@@H]4CN(C)Cc5c(Cl)cc(Cl)cc54)c3)(CCC(=O)NCCOCCOCCNS(=O)(=O)c3cccc([C@@H]4CN(C)Cc5c(Cl)cc(Cl)cc54)c3)NC(=O)NCC(=O)O)c2)C1 [Example 7, 18-(3-((S)-6,8-dichloro-2-methyl-1,2,3,4-tetrahydroisoquinolin-4-yl)phenylsulfonamido)-6,6-bis(3-(2-(2-(2-(3-((S)-6,8-dichloro-2-methyl-1,2,3,4-tetrahydroisoquinolin-4-yl)phenylsulfonamido)ethoxy)ethoxy)ethylamino)-3-oxopropyl)-4,9-dioxo-13,16-dioxa-3,5,10-triazaoctadecan-1-oic acid] | < 100 nM | < 100 nM | < 35% | 83.2% |  |  |  |  | 
6 | CN1Cc2c(Cl)cc(Cl)cc2[C@H](c2cccc(S(=O)(=O)NCCOCCOCCNC(=O)CCC(CCC(=O)NCCOCCOCCNS(=O)(=O)c3cccc([C@@H]4CN(C)Cc5c(Cl)cc(Cl)cc54)c3)(CCC(=O)NCCOCCOCCNS(=O)(=O)c3cccc([C@@H]4CN(C)Cc5c(Cl)cc(Cl)cc54)c3)NC(=O)NC(CO)(CO)CO)c2)C1 [Example 11, N^1,N^7-bis(2-(2-(2-(3-((S)-6,8-dichloro-2-methyl-1,2,3,4-tetrahydroisoquinolin-4-yl)phenylsulfonamido)ethoxy)ethoxy)ethyl)-4-(3-(2-(2-(2-(3-((S)-6,8-dichloro-2-methyl-1,2,3,4-tetrahydroisoquinolin-4-yl)phenylsulfonamido)ethoxy)ethoxy)ethylamino)-3-oxopropyl)-4-(3-(1,3-dihydroxy-2-(hydroxymethyl)propan-2-yl)ureido)heptanediamide] | > 10000 nM | < 100 nM | 35 to 75% | 64.1% |  |  |  |  | 
7 | CN(C)CC(=O)NC(CCC(=O)NCCOCCOCCNS(=O)(=O)c1cccc([C@@H]2CN(C)Cc3c(Cl)cc(Cl)cc32)c1)(CCC(=O)NCCOCCOCCNS(=O)(=O)c1cccc([C@@H]2CN(C)Cc3c(Cl)cc(Cl)cc32)c1)CCC(=O)NCCOCCOCCNS(=O)(=O)c1cccc([C@@H]2CN(C)Cc3c(Cl)cc(Cl)cc32)c1 [Example 14, N1,N7-bis(2-(2-(2-(3-((S)-6,8-dichloro-2-methyl-1,2,3,4-tetrahydroisoquinolin-4-yl)phenylsulfonamido)ethoxy)ethoxy)ethyl)-4-(3-(2-(2-(2-(3-((S)-6,8-dichloro-2-methyl-1,2,3,4-tetrahydroisoquinolin-4-yl)phenylsulfonamido)ethoxy)ethoxy)ethylamino)-3-oxopropyl)-4-(2-(dimethylamino)acetamido)heptanediamide] | < 100 nM | < 100 nM | < 35% |  | 75.3% |  |  |  | 
8 | CN1Cc2c(Cl)cc(Cl)cc2[C@H](c2cccc(S(=O)(=O)NCCOCCOCCNC(=O)CCC(CCC(=O)NCCOCCOCCNS(=O)(=O)c3cccc([C@@H]4CN(C)Cc5c(Cl)cc(Cl)cc54)c3)(CCC(=O)NCCOCCOCCNS(=O)(=O)c3cccc([C@@H]4CN(C)Cc5c(Cl)cc(Cl)cc54)c3)NC(=O)NCCN3CCOCC3)c2)C1 [Example 17, N^1,N^7-bis(2-(2-(2-(3-((S)-6,8-dichloro-2-methyl-1,2,3,4-tetrahydroisoquinolin-4-yl)phenylsulfonamido)ethoxy)ethoxy)ethyl)-4-(3-(2-(2-(2-(3-((S)-6,8-dichloro-2-methyl-1,2,3,4-tetrahydroisoquinolin-4-yl)phenylsulfonamido)ethoxy)ethoxy)ethylamino)-3-oxopropyl)-4-(3-(2-morpholinoethyl)ureido)heptanediamide] | < 100 nM | < 100 nM | < 35% |  | 96.9% |  |  |  | 
9 | CN1Cc2c(Cl)cc(Cl)cc2[C@H](c2cccc(S(=O)(=O)NCCOCCOCCNC(=O)CCC(CCC(=O)NCCOCCOCCNS(=O)(=O)c3cccc([C@@H]4CN(C)Cc5c(Cl)cc(Cl)cc54)c3)(CCC(=O)NCCOCCOCCNS(=O)(=O)c3cccc([C@@H]4CN(C)Cc5c(Cl)cc(Cl)cc54)c3)NC(=O)CCCC(=O)O)c2)C1 [Example 36] |  |  | < 35% |  |  |  | C (C NHE3 pIC50 > 7) | C (C NHE3 pIC50 > 7) | 68%
10 | CN1Cc2c(Cl)cc(Cl)cc2[C@H](c2cccc(S(=O)(=O)NCCOCCOCCNC(=O)CCC(CCC(=O)NCCOCCOCCNS(=O)(=O)c3cccc([C@@H]4CN(C)Cc5c(Cl)cc(Cl)cc54)c3)(CCC(=O)NCCOCCOCCNS(=O)(=O)c3cccc([C@@H]4CN(C)Cc5c(Cl)cc(Cl)cc54)c3)NC(=O)CCC(=O)O)c2)C1 [Example 40] |  |  | < 35% |  |  |  | C (C NHE3 pIC50 > 7) | C (C NHE3 pIC50 > 7) | 99.1%
